Assay results taken from article PMC5574958, “Radiosynthesis and Preclinical Evaluation of [^18F]F-DPA, A Novel Pyrazolo[1,5a]pyrimidine Acetamide TSPO Radioligand, in Healthy Sprague Dawley Rats” (Molecular Imaging and Biology, 2017).

Experiments:
Ex vivo biodistribution = type: in vivo, Sprague Dawley rats; settings: for Uptake of fluorine-18-radioactivity, Harderian gland / Uptake of fluorine-18-radioactivity, Brain / Uptake of fluorine-18-radioactivity, Brown fat / Uptake of fluorine-18-radioactivity, Eye x2 / Uptake of fluorine-18-radioactivity, Injection site (tail) / Uptake of fluorine-18-radioactivity, Large int. Wall + contents / Uptake of fluorine-18-radioactivity, Liver / Uptake of fluorine-18-radioactivity, Lung / Uptake of fluorine-18-radioactivity, Muscle / Uptake of fluorine-18-radioactivity, Salivary x2 / Uptake of fluorine-18-radioactivity, Small int. wall + contents / Uptake of fluorine-18-radioactivity, Stomach wall + contents / Uptake of fluorine-18-radioactivity, Testis: mean, n = 3
Description: After sacrifice (5, 15, 30, 60, and 90 min after injection, n = 3, for every time point and radiotracer), the blood was collected into Li-heparin tubes and transcardial perfusion with saline was conducted rapidly in order to eliminate the blood from the whole body. Following this, the organs of the animals were collected, individually weighed, and the radioactivity was measured using a gamma counter (Wizard^2 3 × 3″, PerkinElmer, Turku, Finland). The decay-corrected radioactivity is reported as percentage of injected dose per gram (%ID/g).

[1] = Plasma protein binding (ultrafiltration of plasma after tracer injection); type: in vivo, Sprague Dawley rats; settings: 15 min after injection, 30 kDa ultrafiltration, n = 3
Description: After 15 min, the animals were sacrificed and the blood was collected into Li-heparin tubes and centrifuged (3000×g, 10 min). A 10-μl aliquot of the plasma was spotted onto a TLC plate; following this, the remaining plasma was filtered by ultrafiltration using Microsep 30K Omega (Pall Life Sciences, Mexico) with a cut-off of 30 kDa. A 10-μl aliquot of the resulting supernatant was also spotted onto the TLC plate. The plates were exposed onto an imaging plate (Fuji BAS Imaging Plate TR2025, Fuji Photo Film Co., Ltd., Tokyo, Japan) for approximately two half-lives of fluorine-18 (3.5 to 4 h). After the exposure, the imaging plates were scanned using a BAS-5000 reader (Fuji, Japan) with a resolution of 50 μm and the saved images were analyzed using TINA software (version 2.10 g, Raytest, Isotopenmessgeräte, GmbH, Straubenhardt, Germany).

[2] = RadioTLC analyses of radiometabolites in plasma and brain homogenates; type: in vivo, Sprague Dawley rats; settings: for Unchanged radiotracer, share of radioactivity in the brain: brain homogenate
Description: The blood samples were taken into Li-heparin tubes and centrifuged (3000×g, 10 min). The plasma was transferred to an Eppendorf tube and the plasma proteins were precipitated by addition of 1.5 parts of MeOH by volume. Following a further centrifugation (12,000×g, 4 min), 20 μl of the supernatant was spotted onto an aluminum-backed silica gel 60/Kieselguhr F254 TLC plate (EMD Millipore 1.05567.0001, Merck Millipore, Darmstadt, Germany).
Brain samples from the cortex were homogenized with approximately 200 μl of 1:1 v/v of MeOH and water; the mixture was transferred to an Eppendorf tube and centrifuged (12,000×g, 4 min). An aliquot (20 μl) of the supernatant was spotted onto the TLC plate.
The TLC plates were developed with a mixture of dichloromethane and methanol (9:1, v/v) for a distance of 6 cm. Following this, the plates were exposed onto an imaging plate (Fuji BAS Imaging Plate TR2025, Fuji Photo Film Co., Ltd., Tokyo, Japan) for approximately two half-lives of fluorine-18 (3.5 to 4 h). After the exposure, the imaging plates were scanned using a BAS-5000 reader (Fuji, Japan) with a resolution of 50 μm and the saved images were analyzed using TINA software (version 2.10 g, Raytest, Isotopenmessgeräte, GmbH, Straubenhardt, Germany).

TSPO = settings: read-out: K i (TSPO affinity); cited from earlier work
CBR = settings: read-out: K i CBR (selectivity); cited from earlier work

CCN(CC)C(=O)Cc1c(-c2ccc([18F])cc2)nn2c(C)cc(C)nc12 [[^18F]F-DPA]
Uptake of fluorine-18-radioactivity, Harderian gland (Ex vivo biodistribution; 5 min after injection): 0.54 %ID/g tissue
Uptake of fluorine-18-radioactivity, Harderian gland (Ex vivo biodistribution; 15 min after injection): 0.59 %ID/g tissue
Uptake of fluorine-18-radioactivity, Harderian gland (Ex vivo biodistribution; 30 min after injection): 0.62 %ID/g tissue
Uptake of fluorine-18-radioactivity, Harderian gland (Ex vivo biodistribution; 60 min after injection): 0.83 %ID/g tissue
Uptake of fluorine-18-radioactivity, Harderian gland (Ex vivo biodistribution; 90 min after injection): 0.55 %ID/g tissue
Accumulation of radioactivity in the bone (defluorination in vivo) (Ex vivo biodistribution; after the initial uptake at 5 min, up to 90 min): no significant accumulation of radioactivity in the bone
Uptake of fluorine-18-radioactivity, Brain (Ex vivo biodistribution; 5 min after injection): 0.23 %ID/g tissue
Uptake of fluorine-18-radioactivity, Brain (Ex vivo biodistribution; 15 min after injection): 0.17 %ID/g tissue
Uptake of fluorine-18-radioactivity, Brain (Ex vivo biodistribution; 30 min after injection): 0.09 %ID/g tissue
Uptake of fluorine-18-radioactivity, Brain (Ex vivo biodistribution; 60 min after injection): 0.07 %ID/g tissue
Uptake of fluorine-18-radioactivity, Brain (Ex vivo biodistribution; 90 min after injection): 0.06 %ID/g tissue
Uptake of fluorine-18-radioactivity, Brown fat (Ex vivo biodistribution; 5 min after injection): 0.28 %ID/g tissue
Uptake of fluorine-18-radioactivity, Brown fat (Ex vivo biodistribution; 15 min after injection): 0.43 %ID/g tissue
Uptake of fluorine-18-radioactivity, Brown fat (Ex vivo biodistribution; 30 min after injection): 1.11 %ID/g tissue
Uptake of fluorine-18-radioactivity, Brown fat (Ex vivo biodistribution; 60 min after injection): 0.44 %ID/g tissue
Uptake of fluorine-18-radioactivity, Brown fat (Ex vivo biodistribution; 90 min after injection): 0.95 %ID/g tissue
Blood radioactivity compared with [^18F]DPA-714 (Ex vivo biodistribution; ex vivo %ID/g, two-tailed unpaired t test, P ≤ 0.006): significantly lower
Uptake of fluorine-18-radioactivity, Eye x2 (Ex vivo biodistribution; eye x2, 5 min after injection): 0.32 %ID/g tissue
Uptake of fluorine-18-radioactivity, Eye x2 (Ex vivo biodistribution; eye x2, 15 min after injection): 0.29 %ID/g tissue
Uptake of fluorine-18-radioactivity, Eye x2 (Ex vivo biodistribution; eye x2, 30 min after injection): 0.21 %ID/g tissue
Uptake of fluorine-18-radioactivity, Eye x2 (Ex vivo biodistribution; eye x2, 60 min after injection): 0.16 %ID/g tissue
Uptake of fluorine-18-radioactivity, Eye x2 (Ex vivo biodistribution; eye x2, 90 min after injection): 0.16 %ID/g tissue
Uptake of fluorine-18-radioactivity, Injection site (tail) (Ex vivo biodistribution; 5 min after injection): 0.36 %ID/g tissue
Uptake of fluorine-18-radioactivity, Injection site (tail) (Ex vivo biodistribution; 15 min after injection): 0.38 %ID/g tissue
Uptake of fluorine-18-radioactivity, Injection site (tail) (Ex vivo biodistribution; 30 min after injection): 0.28 %ID/g tissue
Uptake of fluorine-18-radioactivity, Injection site (tail) (Ex vivo biodistribution; 60 min after injection): 0.42 %ID/g tissue
Uptake of fluorine-18-radioactivity, Injection site (tail) (Ex vivo biodistribution; 90 min after injection): 0.38 %ID/g tissue
Uptake of fluorine-18-radioactivity, Large int. Wall + contents (Ex vivo biodistribution; 5 min after injection): 0.30 %ID/g tissue
Uptake of fluorine-18-radioactivity, Large int. Wall + contents (Ex vivo biodistribution; 15 min after injection): 0.31 %ID/g tissue
Uptake of fluorine-18-radioactivity, Large int. Wall + contents (Ex vivo biodistribution; 30 min after injection): 0.33 %ID/g tissue
Uptake of fluorine-18-radioactivity, Large int. Wall + contents (Ex vivo biodistribution; 60 min after injection): 0.29 %ID/g tissue
Uptake of fluorine-18-radioactivity, Large int. Wall + contents (Ex vivo biodistribution; 90 min after injection): 0.28 %ID/g tissue
Uptake of fluorine-18-radioactivity, Liver (Ex vivo biodistribution; 5 min after injection): 0.77 %ID/g tissue
Uptake of fluorine-18-radioactivity, Liver (Ex vivo biodistribution; 15 min after injection): 0.82 %ID/g tissue
Uptake of fluorine-18-radioactivity, Liver (Ex vivo biodistribution; 30 min after injection): 0.49 %ID/g tissue
Uptake of fluorine-18-radioactivity, Liver (Ex vivo biodistribution; 60 min after injection): 0.43 %ID/g tissue
Uptake of fluorine-18-radioactivity, Liver (Ex vivo biodistribution; 90 min after injection): 0.31 %ID/g tissue
Uptake of fluorine-18-radioactivity, Lung (Ex vivo biodistribution; 5 min after injection): 5.94 %ID/g tissue
Uptake of fluorine-18-radioactivity, Lung (Ex vivo biodistribution; 15 min after injection): 4.04 %ID/g tissue
Uptake of fluorine-18-radioactivity, Lung (Ex vivo biodistribution; 30 min after injection): 2.27 %ID/g tissue
Uptake of fluorine-18-radioactivity, Lung (Ex vivo biodistribution; 60 min after injection): 1.79 %ID/g tissue
Uptake of fluorine-18-radioactivity, Lung (Ex vivo biodistribution; 90 min after injection): 1.47 %ID/g tissue
Uptake of fluorine-18-radioactivity, Muscle (Ex vivo biodistribution; 5 min after injection): 0.07 %ID/g tissue
Uptake of fluorine-18-radioactivity, Muscle (Ex vivo biodistribution; 15 min after injection): 0.07 %ID/g tissue
Uptake of fluorine-18-radioactivity, Muscle (Ex vivo biodistribution; 30 min after injection): 0.09 %ID/g tissue
Uptake of fluorine-18-radioactivity, Muscle (Ex vivo biodistribution; 60 min after injection): 0.11 %ID/g tissue
Uptake of fluorine-18-radioactivity, Muscle (Ex vivo biodistribution; 90 min after injection): 0.12 %ID/g tissue
Uptake of fluorine-18-radioactivity, Salivary x2 (Ex vivo biodistribution; salivary x2, 5 min after injection): 0.70 %ID/g tissue
Uptake of fluorine-18-radioactivity, Salivary x2 (Ex vivo biodistribution; salivary x2, 15 min after injection): 0.82 %ID/g tissue
Uptake of fluorine-18-radioactivity, Salivary x2 (Ex vivo biodistribution; salivary x2, 30 min after injection): 1.56 %ID/g tissue
Uptake of fluorine-18-radioactivity, Salivary x2 (Ex vivo biodistribution; salivary x2, 60 min after injection): 1.21 %ID/g tissue
Uptake of fluorine-18-radioactivity, Salivary x2 (Ex vivo biodistribution; salivary x2, 90 min after injection): 1.00 %ID/g tissue
Uptake of fluorine-18-radioactivity, Small int. wall + contents (Ex vivo biodistribution; 5 min after injection): 1.19 %ID/g tissue
Uptake of fluorine-18-radioactivity, Small int. wall + contents (Ex vivo biodistribution; 15 min after injection): 1.47 %ID/g tissue
Uptake of fluorine-18-radioactivity, Small int. wall + contents (Ex vivo biodistribution; 30 min after injection): 2.00 %ID/g tissue
Uptake of fluorine-18-radioactivity, Small int. wall + contents (Ex vivo biodistribution; 60 min after injection): 1.95 %ID/g tissue
Uptake of fluorine-18-radioactivity, Small int. wall + contents (Ex vivo biodistribution; 90 min after injection): 2.59 %ID/g tissue
Uptake of fluorine-18-radioactivity, Stomach wall + contents (Ex vivo biodistribution; 5 min after injection): 0.50 %ID/g tissue
Uptake of fluorine-18-radioactivity, Stomach wall + contents (Ex vivo biodistribution; 15 min after injection): 0.54 %ID/g tissue
Uptake of fluorine-18-radioactivity, Stomach wall + contents (Ex vivo biodistribution; 30 min after injection): 0.93 %ID/g tissue
Uptake of fluorine-18-radioactivity, Stomach wall + contents (Ex vivo biodistribution; 60 min after injection): 1.07 %ID/g tissue
Uptake of fluorine-18-radioactivity, Stomach wall + contents (Ex vivo biodistribution; 90 min after injection): 0.74 %ID/g tissue
Uptake of fluorine-18-radioactivity, Testis (Ex vivo biodistribution; 5 min after injection): 0.21 %ID/g tissue
Uptake of fluorine-18-radioactivity, Testis (Ex vivo biodistribution; 15 min after injection): 0.28 %ID/g tissue
Uptake of fluorine-18-radioactivity, Testis (Ex vivo biodistribution; 30 min after injection): 0.23 %ID/g tissue
Uptake of fluorine-18-radioactivity, Testis (Ex vivo biodistribution; 60 min after injection): 0.26 %ID/g tissue
Uptake of fluorine-18-radioactivity, Testis (Ex vivo biodistribution; 90 min after injection): 0.27 %ID/g tissue
Fraction of radioactivity unbound to the plasma proteins [1]: 6.6 ± 3.1%
Unchanged radiotracer, share of radioactivity in the brain ([2]; 20–30 min after injection): greater than 95%
Unchanged radiotracer, share of radioactivity in the brain ([2]; 90 min after injection, n = 3): 93.5 ± 2.8%
Unchanged radiotracer, share of radioactivity in the plasma ([2]; plasma, 90 min after injection, n = 3): 28.3 ± 6.4%
Ki (TSPO): 1.7 nM
Ki (CBR): > 1000 nM
